Measured values reported in ChEMBL document CHEMBL1201862, “PubChem BioAssay data set” (2004).
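Method: 48-hour compound exposure of cells in 96-well plates, five concentrations, linear interpolation of endpoints. GI50: concentration for 50% inhibition of growth.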 The source made the active and inactive calls. No stated cut-off is given here; in the data, active = GI50 up to about 1.1 µM and inactive = higher.

Assays:
Assay in all cases: DTP human tumour cell line panel, 48 h
786-0 = tested on: 786-0
BT-549 = tested on: BT-549
DU-145 = tested on: DU-145
HCT-15 = tested on: HCT-15
HL-60 = tested on: HL-60
HOP-62 = tested on: HOP-62
IGROV-1 = tested on: IGROV-1
KM12 = tested on: KM12
MOLT-4 = tested on: MOLT-4
NCI-H23 = tested on: NCI-H23
NCI-H460 = tested on: NCI-H460
NCI-H522 = tested on: NCI-H522
NCI/ADR-RES = tested on: NCI/ADR-RES
OVCAR-3 = tested on: OVCAR-3
RXF 393 = tested on: RXF 393
SF-295 = tested on: SF-295
SNB-19 = tested on: SNB-19
UACC-62 = tested on: UACC-62
UO-31 = tested on: UO-31
RPMI-8226 = tested on: RPMI-8226

With `C=C(C)CNCCN` as the molecule, how does the GI50 (786-0) read?
The GI50 was > 100 µM (inactive).

And the GI50 (BT-549)?
The GI50 was > 100 µM (inactive).

What about the GI50 (DU-145) of the same molecule?
The GI50 was > 100 µM (inactive).

What about the GI50 (HCT-15) of the same molecule?
The GI50 was greater than 100 µM.

And the GI50 (HL-60)?
Its GI50 is > 100 µM (inactive).

And the GI50 (HOP-62)?
Its GI50 is > 100 µM (inactive).

What about the GI50 (IGROV-1) of the same molecule?
Its GI50 is > 100 µM (inactive).

And the GI50 (KM12)?
Its GI50 is > 100 µM (inactive).

What about the GI50 (MOLT-4) of the same molecule?
Its GI50 is > 100 µM (inactive).

And the GI50 (NCI-H23)?
The GI50 was > 100 µM (inactive).

What about the GI50 (NCI-H460) of the same molecule?
The GI50 was > 100 µM (inactive).

What about the GI50 (NCI-H522) of the same molecule?
The GI50 was > 100 µM (inactive).

What about the GI50 (NCI/ADR-RES) of the same molecule?
Its GI50 is > 100 µM (inactive).

What about the GI50 (OVCAR-3) of the same molecule?
Its GI50 is > 100 µM (inactive).

What about the GI50 (RXF 393) of the same molecule?
Its GI50 is > 100 µM (inactive).

And the GI50 (SF-295)?
Its GI50 is > 100 µM (inactive).

And the GI50 (SNB-19)?
Its GI50 is > 100 µM (inactive).

What about the GI50 (UACC-62) of the same molecule?
Its GI50 is > 100 µM (inactive).

And the GI50 (UO-31)?
The GI50 was > 100 µM (inactive).

What does the source list for `Oc1ccc(C[C@@H]2CN[C@H](Cc3ccc(O)c(Br)c3)CN2)cc1`?
GI50 (786-0): > 100 µM (inactive); GI50 (BT-549): > 100 µM (inactive); GI50 (DU-145): > 100 µM (inactive); GI50 (HCT-15): > 100 µM; GI50 (HL-60): > 100 µM (inactive); GI50 (HOP-62): > 100 µM (inactive); GI50 (IGROV-1): > 100 µM (inactive); GI50 (KM12): > 100 µM (inactive); GI50 (MOLT-4): > 100 µM (inactive); GI50 (NCI-H23): > 100 µM (inactive); GI50 (NCI-H522): > 100 µM (inactive); GI50 (NCI/ADR-RES): > 100 µM (inactive); GI50 (OVCAR-3): > 100 µM (inactive); GI50 (RXF 393): 84.3 µM (inactive); GI50 (SF-295): > 100 µM (inactive); GI50 (UACC-62): > 100 µM (inactive); GI50 (UO-31): > 100 µM (inactive)

With `[N-]=[N+]=NC1=C(c2ccccn2)C(=O)c2cccc3cccc1c23` as the molecule, how does the GI50 (786-0) read?
Its GI50 is 25.2 µM (inactive).

And the GI50 (BT-549)?
Its GI50 is 27.3 µM (inactive).

And the GI50 (DU-145)?
The GI50 was 39.7 µM (inactive).

What about the GI50 (HCT-15) of the same molecule?
Its GI50 is 29 µM.

What about the GI50 (HL-60) of the same molecule?
The GI50 was 20.7 µM (inactive).

And the GI50 (HOP-62)?
Its GI50 is 19.7 µM (inactive).

And the GI50 (IGROV-1)?
The GI50 was 14.8 µM (inactive).

What about the GI50 (KM12) of the same molecule?
The GI50 was 25.4 µM (inactive).

What about the GI50 (MOLT-4) of the same molecule?
The GI50 was 1.77 µM (inactive).

And the GI50 (NCI-H23)?
The GI50 was 19.2 µM (inactive).

And the GI50 (NCI-H460)?
The GI50 was 12 µM (inactive).

And the GI50 (NCI/ADR-RES)?
Its GI50 is 50.8 µM (inactive).

And the GI50 (OVCAR-3)?
Its GI50 is 27.7 µM (inactive).

And the GI50 (RPMI-8226)?
Its GI50 is 34 µM (inactive).

What about the GI50 (RXF 393) of the same molecule?
The GI50 was 37.2 µM (inactive).

And the GI50 (SF-295)?
The GI50 was 42.5 µM (inactive).

What about the GI50 (SNB-19) of the same molecule?
Its GI50 is 28.6 µM (inactive).

And the GI50 (UACC-62)?
The GI50 was 20 µM (inactive).

What about the GI50 (UO-31) of the same molecule?
The GI50 was 7.48 µM (inactive).

With `COC(=O)C1CC(C=O)=C(SC)N1` (centres undefined) as the molecule, how does the GI50 (786-0) read?
Its GI50 is > 50 µM (inactive).

What about the GI50 (BT-549) of the same molecule?
The GI50 was > 50 µM (inactive).

What about the GI50 (DU-145) of the same molecule?
The GI50 was > 50 µM (inactive).

And the GI50 (HCT-15)?
The GI50 was greater than 50 µM.

What about the GI50 (HOP-62) of the same molecule?
The GI50 was > 50 µM (inactive).

What about the GI50 (IGROV-1) of the same molecule?
The GI50 was > 50 µM (inactive).

And the GI50 (KM12)?
The GI50 was > 50 µM (inactive).

What about the GI50 (MOLT-4) of the same molecule?
The GI50 was > 50 µM (inactive).

What about the GI50 (NCI-H23) of the same molecule?
The GI50 was > 50 µM (inactive).

What about the GI50 (NCI-H460) of the same molecule?
Its GI50 is > 50 µM (inactive).

What about the GI50 (NCI-H522) of the same molecule?
The GI50 was > 50 µM (inactive).

What about the GI50 (NCI/ADR-RES) of the same molecule?
Its GI50 is > 50 µM (inactive).

What about the GI50 (OVCAR-3) of the same molecule?
Its GI50 is > 50 µM (inactive).

And the GI50 (RPMI-8226)?
The GI50 was > 50 µM (inactive).

And the GI50 (RXF 393)?
The GI50 was > 50 µM (inactive).

What about the GI50 (SF-295) of the same molecule?
Its GI50 is > 50 µM (inactive).

And the GI50 (SNB-19)?
The GI50 was > 50 µM (inactive).

And the GI50 (UACC-62)?
The GI50 was > 50 µM (inactive).

What about the GI50 (UO-31) of the same molecule?
The GI50 was > 50 µM (inactive).

How did the GI50 (786-0) turn out when `CC(C)(C)/C(O)=C\c1nc2cc(C(F)(F)F)ccc2[nH]c1=O` was run?
The GI50 was > 100 µM (inactive).

What about the GI50 (BT-549) of the same molecule?
Its GI50 is > 100 µM (inactive).

What about the GI50 (DU-145) of the same molecule?
Its GI50 is > 100 µM (inactive).

And the GI50 (HCT-15)?
Its GI50 is greater than 100 µM.

And the GI50 (HL-60)?
Its GI50 is 0.53 µM (active).

What about the GI50 (HOP-62) of the same molecule?
The GI50 was > 100 µM (inactive).

What about the GI50 (IGROV-1) of the same molecule?
Its GI50 is > 100 µM (inactive).

And the GI50 (KM12)?
The GI50 was > 100 µM (inactive).

And the GI50 (MOLT-4)?
The GI50 was > 10 µM (inactive).

What about the GI50 (NCI-H23) of the same molecule?
The GI50 was > 100 µM (inactive).

And the GI50 (NCI-H522)?
Its GI50 is > 100 µM (inactive).

What about the GI50 (NCI/ADR-RES) of the same molecule?
Its GI50 is > 100 µM (inactive).

And the GI50 (OVCAR-3)?
The GI50 was > 100 µM (inactive).

What about the GI50 (RPMI-8226) of the same molecule?
Its GI50 is > 100 µM (inactive).

What about the GI50 (RXF 393) of the same molecule?
The GI50 was > 100 µM (inactive).

What about the GI50 (SF-295) of the same molecule?
The GI50 was > 100 µM (inactive).

And the GI50 (SNB-19)?
Its GI50 is > 100 µM (inactive).

What about the GI50 (UACC-62) of the same molecule?
The GI50 was > 100 µM (inactive).

What about the GI50 (UO-31) of the same molecule?
The GI50 was > 100 µM (inactive).

`CCc1nn(S(=O)(=O)c2ccc(C)cc2)c2c1CS(=O)(=O)CC2` was tested. Which GI50 (786-0) did it give?
The GI50 was > 100 µM (inactive).

And the GI50 (BT-549)?
The GI50 was > 100 µM (inactive).

And the GI50 (DU-145)?
Its GI50 is > 100 µM (inactive).

What about the GI50 (HCT-15) of the same molecule?
The GI50 was greater than 100 µM.

And the GI50 (HOP-62)?
The GI50 was 84.1 µM (inactive).

And the GI50 (KM12)?
The GI50 was > 100 µM (inactive).

What about the GI50 (MOLT-4) of the same molecule?
The GI50 was > 100 µM (inactive).

What about the GI50 (NCI-H23) of the same molecule?
The GI50 was > 100 µM (inactive).

And the GI50 (NCI-H460)?
Its GI50 is > 100 µM (inactive).

What about the GI50 (NCI/ADR-RES) of the same molecule?
Its GI50 is 38.1 µM (inactive).

And the GI50 (OVCAR-3)?
The GI50 was > 100 µM (inactive).

And the GI50 (RPMI-8226)?
The GI50 was > 100 µM (inactive).

What about the GI50 (RXF 393) of the same molecule?
Its GI50 is > 100 µM (inactive).

What about the GI50 (SF-295) of the same molecule?
The GI50 was 66.8 µM (inactive).

What about the GI50 (SNB-19) of the same molecule?
Its GI50 is > 100 µM (inactive).

And the GI50 (UACC-62)?
Its GI50 is > 100 µM (inactive).

And the GI50 (UO-31)?
The GI50 was > 100 µM (inactive).

Which results are given for `COC1=C(OC)C(=O)C(C/C=C/c2c(Cl)nc3sccn23)=C(C)C1=O`?
GI50 (786-0): 21.5 µM (inactive); GI50 (BT-549): 15 µM (inactive); GI50 (DU-145): 18.5 µM (inactive); GI50 (HCT-15): 26.5 µM; GI50 (HOP-62): 16.8 µM (inactive); GI50 (IGROV-1): 17.4 µM (inactive); GI50 (KM12): 17.5 µM (inactive); GI50 (MOLT-4): 1.69 µM (inactive); GI50 (NCI-H23): 0.518 µM (active); GI50 (NCI-H460): 17.9 µM (inactive); GI50 (NCI-H522): 15.1 µM (inactive); GI50 (NCI/ADR-RES): 5.58 µM (inactive); GI50 (OVCAR-3): 13.7 µM (inactive); GI50 (RPMI-8226): 4.35 µM (inactive); GI50 (RXF 393): 18.4 µM (inactive); GI50 (SF-295): 2.1 µM (inactive); GI50 (SNB-19): 14.1 µM (inactive); GI50 (UACC-62): 14.5 µM (inactive); GI50 (UO-31): 18.7 µM (inactive)
